Experiment [1] deals with bovine microtubule-associated protein (MAP)-rich tubulin. It counts as biochemical. The gist of the method:
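MAP-rich bovine tubulin at 1.5 mg/ml final was dissolved in cold PEM buffer (80 mM Na-PIPES pH 6.9, 1 mM MgCl2, 1 mM EGTA) with 1 mM GTP, then centrifuged at 12,000×g for 10 min at 4° C. Aliquots of 100 μl were added quickly to a low-volume 96-well plate holding duplicate 10 μl compound samples. Absorbance at 340 nm was read each minute for 60 min at 24° C.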

Experiment [2] relates to KB cells. Briefly: cells. Format: cell-based. The note with it: 3 days, SRB. Here is the method:
(§1) Cell Survival Assay: Standard Pharmacological Test Procedure. […] Compounds are incubated with cells for 3 days.

The subject of experiment [3] is KB85. Nature of the experiment: cells. It counts as cell-based. The note with it: 3 days, SRB. Here is the method:
as §1

The subject of experiment [4] is KBV1. Briefly: cells. It counts as cell-based. The note with it: for IC50: 3 days, SRB. Here is the method: as §1

Marks after values point to notes of the source that are not given here.

As usually defined, the IC50 is the concentration at which inhibition is half-maximal. Lower therefore signals higher potency. Turning to `CN[C@H](C(=O)N[C@H](C(=O)N(C)[C@H](/C=C(\C)[C@@H](O)c1ccccc1)C(C)C)C(C)(C)C)C(C)(C)c1ccccc1` [Example 75, N,β,β-trimethyl-L-phenylalanyl-N-1-[(1S,2E,4R)-4-hydroxy-1-isopropyl-3-methyl-4-phenylbut-2-enyl}-N-1,3-dimethyl-L-valinamide], the “Tubulin Polym. % inhibition at 0.5 uM” value in experiment [1] (0.5 uM) is 83*** %. For the same molecule, the IC50 in experiment [2] amounted to 124 nM; in experiment [3], 186 nM; in experiment [4], 632 nM.

On to `CN[C@H](C(=O)N[C@H](C(=O)N(C)[C@H](/C=C(\C)C(=O)N1CCC[C@H]1[C@H](OC)[C@@H](C)C(=O)NCCc1ccccc1)C(C)C)C(C)(C)C)C(C)(C)c1ccccc1` [Example 31, N-methyl-3-phenyl-L-valyl-N^1— [(1S,2E)-1-isopropyl-4-((2S)-2-{(1R,2R)-1-methoxy-2-methyl-3-oxo-[(2-phenethyl)amino]propyl}pyrrolidin-1-yl)-3-methyl-4-oxobut-2-enyl]-N^1,3-dimethyl-L-valinamide], for which, in experiment [1], the “Tubulin Polym. % inhibition at 0.3 uM” value is reported as 69%. Also, the IC50 in experiment [2] came to 0.9 nM; in experiment [3], 5.1 nM; in experiment [4], 191 nM.

`CN[C@H](C(=O)N[C@H](C(=O)N(C)[C@H](/C=C(\C)C(=O)N1CC=C[C@H]1C(=O)OC)C(C)C)C(C)(C)C)C(C)(C)c1ccccc1` [Example 47, N,β,β-trimethyl-L-phenylalanyl-N^1-{(1S,2E)-1-isopropyl-4-[(2S)-2-(methoxycarbonyl)-2,5-dihydro-1H-pyrrol-1-yl]-3-methyl-4-oxobut-2-enyl}-N^1,3-dimethyl-L-valinamide]: the “Tubulin Polym. % inhibition at 0.3 uM” value in experiment [1] is listed as 88(2) %. The IC50 in experiment [2] (Homo sapiens, KB, 72 h) came to 3.5 nM; in experiment [3] (72 h), 17 nM; in experiment [4] (Homo sapiens, KB-V1, 72 h), 272 nM.

The inhibition is the drop in the measured response relative to a control, in per cent. Lower therefore signals a response near the control. `CN[C@H](C(=O)N[C@H](C(=O)N(C)[C@H](/C=C1\NC(=O)NC1=O)C(C)C)C(C)(C)C)C(C)(C)c1ccccc1` [Example 85, N,β,β-trimethyl-L-phenylalanyl-N^1-{(1S)-1-[(Z)-(2,5-dioxo-4-imidazolidinylidene)methyl]-2-methylpropyl}-N^1,3-dimethyl-L-valinamide]: the “Tubulin Polym. % inhibition at 0.3 uM” value in experiment [1] came out at 59%. For the same molecule, the IC50 in experiment [2] (Homo sapiens, KB, 72 h) worked out at 1070 nM; in experiment [3] (72 h) it was 1740 nM. At 3 µM the inhibition in experiment [4] (Homo sapiens, KB-V1, 3000 nM) was 10%.

In the case of `CN[C@H](C(=O)N[C@H](C(=O)N(C)[C@H](/C=C(\C)C(=O)N1CCC[C@H]1[C@H](OC)[C@@H](C)C(=O)N1C(=O)O[C@@H](c2ccccc2)[C@H]1C)C(C)C)C(C)(C)C)C(C)(C)C1CCCCC1` [Example 51, 3-cyclohexyl-N-methyl-L-valyl-N^1-[(1S,2E)-1-isopropyl-4-((2S)-2-{(1R,2R)-1-meyhoxy-2-methyl-3-[(4R,5S)-4-methyl-2-oxo-5-phenyl-1,3-oxazolidin-3-yl]-3-oxopropyl}pyrrolidin-1-yl)-3-methyl-4-oxobut-2-enyl]-N^1,3-dimethyl-L-valinamide], the “Tubulin Polym. % inhibition at 0.3 uM” value in experiment [1] worked out at 82%. In addition, the IC50 came out at 22 nM in experiment [2], 61 nM in experiment [3] and 1770 nM in experiment [4].

Regarding `C/C(=C\[C@H](C(C)C)N(C)C(=O)[C@@H](NC(=O)[C@@H](N(C)C)C(C)(C)c1ccccc1)C(C)(C)C)C(=O)N1CCN(Cc2ccccc2)CC1` [Example 15, N,β,β,β-Tetramethyl-L-phenylalanyl-N^1[(1S,2E)-4-(4-benzylpiperazin-1-yl)-1-isopropyl-3-methyl-4-oxobut-2-enyl]-N^1,3-dimethyl-L-valinamide], the “Tubulin Polym. % inhibition at 0.3 uM” value in experiment [1] is 77%. In addition, the figures for the IC50 in experiment [2], in experiment [3] and in experiment [4] were 7.2 nM, 18 nM and 354 nM, respectively.

The values are drawn from patent US7390910B2, “Compounds for treating tumors” (priority 2003, dated 2008).
